Structures are written as SMILES. Like-named read-outs stand apart in the source and are kept apart here.

For one test, the target named is BTK (Homo sapiens (Human), UniProt Q06187). The experiment in a line: In Vitro BTK Kinase Assay: Btk-PolyGAT-LS Assay. Format: biochemical. To be noted: BTK enzyme 0.25 nM, ATP 10 μM, polyGAT 100 nM, 30 minutes incubation, TRF readout; read-out: IC50. In short, it runs like this:
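Human BTK activity was measured with final 10 μM ATP and 100 nM polyGAT substrate in pH 7.5 Tris buffer with 10 mM MgCl2, DTT, Triton X-100 and casein.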

Test [1] deals with CD69 expression on CD19+ B cells in human whole blood stimulated with anti-human IgD. The experiment in a line: In Vitro whole blood CD69 Assay. Type of test: cell-based.
Where [2] appears, read: Homo sapiens, B-cell, human heparinized whole blood, anti-human IgD stimulation overnight, percentage of CD19+ B cells expressing CD69, flow cytometry, read-out: IC50.
[3] abbreviates: human heparinized whole blood, anti-human IgD stimulation overnight, percentage of CD19+ B cells expressing CD69, flow cytometry, read-out: IC50.

Chain of BTK (Q06187 whole entry): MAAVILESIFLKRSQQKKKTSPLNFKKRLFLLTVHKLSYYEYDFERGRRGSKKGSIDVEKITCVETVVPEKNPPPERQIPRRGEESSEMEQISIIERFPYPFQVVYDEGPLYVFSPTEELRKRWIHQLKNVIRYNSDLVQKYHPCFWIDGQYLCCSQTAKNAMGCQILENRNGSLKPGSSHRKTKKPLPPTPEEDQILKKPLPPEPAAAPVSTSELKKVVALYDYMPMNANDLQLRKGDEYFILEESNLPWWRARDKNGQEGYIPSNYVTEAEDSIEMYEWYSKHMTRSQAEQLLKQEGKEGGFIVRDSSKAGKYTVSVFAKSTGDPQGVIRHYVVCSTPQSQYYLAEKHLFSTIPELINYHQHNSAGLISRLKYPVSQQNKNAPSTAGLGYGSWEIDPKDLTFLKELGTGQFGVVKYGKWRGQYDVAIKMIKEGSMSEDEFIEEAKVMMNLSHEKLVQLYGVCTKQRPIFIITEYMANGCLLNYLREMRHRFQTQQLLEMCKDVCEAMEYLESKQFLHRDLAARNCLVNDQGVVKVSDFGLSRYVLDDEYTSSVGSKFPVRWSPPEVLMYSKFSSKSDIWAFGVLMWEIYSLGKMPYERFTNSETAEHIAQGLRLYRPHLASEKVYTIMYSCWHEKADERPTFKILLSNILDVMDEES

Usually IC50 stands for the concentration needed to halve the response being measured. Consider `C=CC(=O)N(C)c1ccc(F)c(Oc2nc(-c3cnn(C)c3)cn3nccc23)c1` [Example 130, N-(4-fluoro-3-((6-(1-methyl-1H-pyrazol-4-yl)pyrazolo[1,5-a]pyrazin-4-yl)oxy)phenyl)-N-methylacrylamide], for which the IC50 was in the range of 0.001 to 0.01 µM on BTK and 1 to 10 µM in test [1] (setting [2]).

Regarding `C#CC(=O)N1CCC[C@H](COc2nc(-c3cnn(C)c3)cn3nccc23)C1` [Example 16, (S)-1-(3-(((6-(1-methyl-1H-pyrazol-4-yl)pyrazolo[1,5-a]pyrazin-4-yl)oxy)methyl)piperidin-1-yl)prop-2-yn-1-one], the concentration for half-maximal inhibition (IC50) at BTK is less than 0.001 µM; in test [1] (setting [2]) it was less than 1 µM.

With `C=CC(=O)N1CCCC(Oc2nc(-c3ccnc(OC)c3)cn3nccc23)CC1` (single isomer, unassigned) [Example 72 E1, 1-(4-((6-(2-methoxypyridin-4-yl)pyrazolo[1,5-a]pyrazin-4-yl)oxy)azepan-1-yl)prop-2-en-1-one], the IC50 at BTK is less than 0.001 µM; in test [1] (setting [2]), 1 to 10 µM.

As to `C=CC(=O)NC12CCC(Oc3nc(-c4cnn(C)c4)cn4nccc34)(C1)C2` [Example 98, N-(4-((6-(1-methyl-1H-pyrazol-4-yl)pyrazolo[1,5-a]pyrazin-4-yl)oxy)bicyclo[2.1.1]hexan-1-yl)acrylamide], the IC50 was less than 0.001 µM on BTK and 1 to 10 µM in test [1] (setting [2]).

For `C=CC(=O)N1CC2(Oc3nc(-c4cnn(C)c4)cn4nccc34)CC1(C)C2` [Example 124, 1-(1-methyl-4-((6-(1-methyl-1H-pyrazol-4-yl)pyrazolo[1,5-a]pyrazin-4-yl)oxy)-2-azabicyclo[2.1.1]hexan-2-yl)prop-2-en-1-one], the IC50 on BTK was 0.001 to 0.01 µM; in test [1] (Homo sapiens, B-cell) it was 1 to 10 µM.

Turning to `Cn1cc(-c2cn3nccc3c(O[C@]3(C)C[C@H](N(C)C(=O)/C=C/C(F)(F)F)C3)n2)cn1` [Example 232, (E)-4,4,4-trifluoro-N-methyl-N-((1s,3s)-3-methyl-3-((6-(1-methyl-1H-pyrazol-4-yl)pyrazolo[1,5-a]pyrazin-4-yl)oxy)cyclobutyl)but-2-enamide], the results for the half-inhibitory concentration (IC50) (at BTK; in test [1] (setting [2])) were less than 0.001 µM and less than 1 µM, respectively.

As for `C#CC(=O)N1CCC(Oc2nc(-c3cnn(C)c3)cn3nccc23)CC1` [Example 1, 1-[4-[6-(1-methylpyrazol-4-yl)pyrazolo[1,5-a]pyrazin-4-yl]oxy-1-piperidyl]prop-2-yn-1-one], the results for the IC50 (at BTK; in test [1] (setting [2])) were 0.001 to 0.01 µM and more than 10 µM, respectively.

Turning to `C=CS(=O)(=O)N1CCC(Oc2nc(-c3cnn(C)c3)cn3nccc23)CC1` [Example 3, 6-(1-methyl-1H-pyrazol-4-yl)-4-((1-(vinylsulfonyl)piperidin-4-yl)oxy)pyrazolo[1,5-a]pyrazine], the values for the IC50 (at BTK; in test [1] (setting [2])) were less than 0.001 µM and more than 10 µM, respectively.

As to `C=CC(=O)N(CC(F)F)[C@H]1CC[C@@H](Oc2nc(-c3cnn(C)c3)cn3nccc23)C1` [Example 146, N-(2,2-difluoroethyl)-N-((1S,3R)-3-((6-(1-methyl-1H-pyrazol-4-yl)pyrazolo[1,5-a]pyrazin-4-yl)oxy)cyclopentyl)acrylamide], the half-maximal inhibitory concentration (IC50) was less than 0.001 µM on BTK and less than 1 µM in test [1] (setting [2]).

With `C#CC(=O)N1CCC[C@@H](Oc2nc(-c3cnn(C)c3)cn3nccc23)C1` [Example 7, (R)-1-(3-((6-(1-methyl-1H-pyrazol-4-yl)pyrazolo[1,5-a]pyrazin-4-yl)oxy)piperidin-1-yl)prop-2-yn-1-one], the IC50 at BTK is less than 0.001 µM; in test [1] (setting [2]), 1 to 10 µM.

Take `C=CC(=O)N1CCO[C@](C)(COc2nc(-c3cnn(C)c3)cn3nccc23)C1` (single isomer, unassigned) [Example 117, (S) or (R)-1-(2-methyl-2-(((6-(1-methyl-1H-pyrazol-4-yl)pyrazolo[1,5-a]pyrazin-4-yl)oxy)methyl)morpholino)prop-2-en-1-one]: the IC50 at BTK is 0.001 to 0.01 µM; in test [1] (setting [2]) it was less than 1 µM.

In the case of `C=CC(=O)N(C)[C@H]1C[C@@](C)(Oc2nc(-c3cnn(C)c3)cn3ncc(C4CC4)c23)C1` [Example 229, N-((1s,3s)-3-((3-cyclopropyl-6-(1-methyl-1H-pyrazol-4-yl)pyrazolo[1,5-a]pyrazin-4-yl)oxy)-3-methylcyclobutyl)-N-methylacrylamide], the IC50 at BTK was less than 0.001 µM; in test [1] (setting [2]) it was less than 1 µM.

`C#CC(=O)N(C)C1CCCN(c2nc(-c3cnn(C)c3)cn3nccc23)C1` (stereo not drawn) [Example 24, N-methyl-N-[1-[6-(1-methylpyrazol-4-yl)pyrazolo[1,5-a]pyrazin-4-yl]-3-piperidyl]prop-2-ynamide]: the IC50 was 0.01 to 1 µM on BTK and more than 10 µM in test [1] (setting [2]).

For the compound `CC#CC(=O)N1CC2(C1)CC(C)(Oc1nc(-c3cnn(C)c3)cn3ncc(F)c13)C2` [Example 86, 1-(6-((3-fluoro-6-(1-methyl-1H-pyrazol-4-yl)pyrazolo[1,5-a]pyrazin-4-yl)oxy)-6-methyl-2-azaspiro[3.3]heptan-2-yl)but-2-yn-1-one], the values for the IC50 (on BTK; in test [1] (setting [2])) were 0.001 to 0.01 µM and less than 1 µM, respectively.

As to `C=CC(=O)NCC1CCCCN1c1nc(-c2cnn(C)c2)cn2nccc12` (stereo not drawn) [Example 27, N-[[1-[6-(1-methylpyrazol-4-yl)pyrazolo[1,5-a]pyrazin-4-yl]-2-piperidyl]methyl]prop-2-enamide], the values for the IC50 (at BTK; in test [1] (setting [2])) were 0.01 to 1 µM and 1 to 10 µM, respectively.

With `C=CC(=O)N(C)[C@H]1C[C@](Oc2nc(-c3cnn(C)c3)cn3nccc23)(C2CC2)C1` [Example 103, N-((1s,3s)-3-cyclopropyl-3-((6-(1-methyl-1H-pyrazol-4-yl)pyrazolo[1,5-a]pyrazin-4-yl)oxy)cyclobutyl)-N-methylacrylamide], the IC50 on BTK was 0.001 to 0.01 µM; in test [1] (setting [3]), 1 to 10 µM.

Regarding `CC#CC(=O)N(C)[C@@H]1C[C@@H]2C[C@H]1[C@@H](Oc1nc(-c3cnn(C)c3)cn3nccc13)C2` (racemic) [Example 123, N-methyl-N-((1S,2S,4R,6R)-6-((6-(1-methyl-1H-pyrazol-4-yl)pyrazolo[1,5-a]pyrazin-4-yl)oxy)bicyclo[2.2.1]heptan-2-yl)but-2-ynamide and N-methyl-N-((1R,2R,4S,6S)-6-((6-(1-methyl-1H-pyrazol-4-y)pyrazolo[1,5-a]pyrazin-4-yl)oxy)bicyclo[2.2.1]heptan-2-y)but-2-ynamide], the concentration for half-maximal inhibition (IC50) at BTK lay within 0.001 to 0.01 µM; in test [1] (setting [3]) it was 1 to 10 µM.

On to `C=CC(=O)N(C)[C@@H]1C[C@@H](Oc2nc(-c3cnn(C)c3)cn3nccc23)C1(C)C` [Example 220, N-((1R,3R)-2,2-dimethyl-3-((6-(1-methyl-1H-pyrazol-4-yl)pyrazolo[1,5-a]pyrazin-4-yl)oxy)cyclobutyl)-N-methylacrylamide], for which the figures for the IC50 (at BTK; in test [1] (setting [2])) were 0.001 to 0.01 µM and 1 to 10 µM, respectively.

Regarding `C#CC(=O)N(C)C1CCCN(c2nc(-c3cnn(C)c3)cc3nccn23)C1` (stereo not drawn) [Example 23, N-methyl-N-[1-[7-(1-methylpyrazol-4-yl)imidazo[1,2-c]pyrimidin-5-yl]-3-piperidyl]prop-2-ynamide], the IC50 at BTK was 0.01 to 1 µM; in test [1] (setting [2]), more than 10 µM.

As for `C=CC(=O)N1C[C@H]2C[C@@H](C1)[C@H]2COc1nc(-c2cnn(C)c2)cn2nccc12` [Example 128, 1-((1R,5S,6s)-6-(((6-(1-methyl-1H-pyrazol-4-yl)pyrazolo[1,5-a]pyrazin-4-yl)oxy)methyl)-3-azabicyclo[3.1.1]heptan-3-yl)prop-2-en-1-one], the IC50 was less than 0.001 µM on BTK and less than 1 µM in test [1] (setting [3]).

In the case of `C=CC(=O)N1C[C@H]2C[C@@H](C1)[C@@H]2COc1nc(-c2cnn(C)c2)cn2nccc12` [Example 127, 1-((1R,5S,6r)-6-(((6-(1-methyl-1H-pyrazol-4-yl)pyrazolo[1,5-a]pyrazin-4-yl)oxy)methyl)-3-azabicyclo[3.1.1]heptan-3-yl)prop-2-en-1-one], the IC50 at BTK is less than 0.001 µM; in test [1] (setting [3]) it was 1 to 10 µM.

Regarding `C[C@@H]1O[C@H]1C(=O)N[C@H]1CC[C@@H](Oc2nc(-c3cnn(C)c3)cn3nccc23)C1` (single isomer, unassigned) [Example 148], the IC50 is 0.001 to 0.01 µM at BTK and less than 1 µM in test [1] (setting [2]).

With `C=CC(=O)N1CC(C)(C)OC(C)(COc2nc(-c3cnn(C)c3)cn3nccc23)C1` (single isomer, unassigned) [Example 120, 1-(2,2,6-trimethyl-6-(((6-(1-methyl-1H-pyrazol-4-yl)pyrazolo[1,5-a]pyrazin-4-yl)oxy)methyl)morpholino)prop-2-en-1-one], the IC50 on BTK is less than 0.001 µM; in test [1] (setting [2]) it was less than 1 µM.

On to `C[C@H]1O[C@@H]1C(=O)N1CC[C@@H]2[C@H]1C[C@]2(C)Oc1nc(-c2cnn(C)c2)cn2nccc12` (single isomer, unassigned) [Example 193], for which the results for the IC50 (on BTK; in test [1] (setting [2])) were 0.001 to 0.01 µM and 1 to 10 µM, respectively.

For `C=CC(=O)N1CC[C@@H]2[C@@H](Oc3nc(-c4cnn(C)c4)cn4nccc34)C(C)(C)[C@@H]21` [Example 169, 1-((1R,5S,6R)-7,7-dimethyl-6-((6-(1-methyl-1H-pyrazol-4-yl)pyrazolo[1,5-a]pyrazin-4-yl)oxy)-2-azabicyclo[3.2.0]heptan-2-yl)prop-2-en-1-one], the IC50 is 0.001 to 0.01 µM at BTK and 1 to 10 µM in test [1] (setting [2]).

`C=CC(=O)N1CC[C@]2(C1)C[C@](C)(Oc1nc(-c3cnn(C)c3)cn3nccc13)C2` [Example 212, rac-1-((2s,4r)-2-methyl-2-((6-(1-methyl-1H-pyrazol-4-yl)pyrazolo[1,5-a]pyrazin-4-yl)oxy)-6-azaspiro[3.4]octan-6-yl)prop-2-en-1-one]: the values for the IC50 (on BTK; in test [1] (setting [3])) were 0.001 to 0.01 µM and 1 to 10 µM, respectively.

As for `CC#CC(=O)N(C)C12COCC(Oc3nc(-c4cnn(C)c4)cn4nccc34)(C1)C2` [Example 100, N-methyl-N-(5-((6-(1-methyl-1H-pyrazol-4-yl)pyrazolo[1,5-a]pyrazin-4-yl)oxy)-3-oxabicyclo[3.1.1]heptan-1-yl)but-2-ynamide], the 50% inhibitory concentration (IC50) is less than 0.001 µM at BTK and less than 1 µM in test [1] (setting [2]).

Values taken from patent US20240083900A1, “PYRAZOLO[1,5-A]PYRAZINE DERIVATIVES AS BTK INHIBITORS” (BIOGEN MA INC., priority 2020, published 2024).
